One data set deals with HT-29. The experiment in a line: Anticancer activity against human HT-29 cells assessed as cell growth inhibition measured after 48 hrs by sulforhodamine B assay. Format: functional. For orientation: In SRB staining, fixed cells bind dye roughly in proportion to their protein.
The subject of the next data set is U-251. As to the kind of experiment: Anticancer activity against human U-251 cells assessed as cell growth inhibition measured after 48 hrs by sulforhodamine B assay. Type of data set: functional. As to conditions: 48 h.
The test system of a further data set is K562. As to the kind of experiment: Anticancer activity against human K562 cells assessed as cell growth inhibition measured after 48 hrs by sulforhodamine B assay. Type of data set: functional. As to conditions: 48 h.
The test system of another data set is 786-0. The experiment in a line: Anticancer activity against human 786-0 cells assessed as cell growth inhibition measured after 48 hrs by sulforhodamine B assay. As to conditions: 48 h. Format: functional.
Another data set deals with PC-3. The experiment in a line: Anticancer activity against human PC-3 cells assessed as cell growth inhibition measured after 48 hrs by sulforhodamine B assay. Format: functional. To be noted: 48 h.
Another data set concerns MCF7. As to the kind of experiment: Anticancer activity against human MCF7 cells assessed as cell growth inhibition measured after 48 hrs by sulforhodamine B assay. To be noted: 48 h. Type of data set: functional.
The next data set has as its system OVCAR-3. As to the kind of experiment: Anticancer activity against human OVCAR-3 cells assessed as cell growth inhibition measured after 48 hrs by sulforhodamine B assay. Format: functional. To be noted: 48 h.
Another data set has as its system NCI-H460. As to the kind of experiment: Anticancer activity against human NCI-H460 cells assessed as cell growth inhibition measured after 48 hrs by sulforhodamine B assay. Type of data set: functional.
A further data set relates to HaCaT. The experiment in a line: Cytotoxicity against human HaCaT cells assessed as cell growth inhibition measured after 48 hrs by sulforhodamine B assay. Type of data set: cell-based. To be noted: hacat, 48 h.

Structures are written as SMILES. A value given as a limit tells only on which side of the number the result lay.

One may read the GI50 as the concentration that inhibits growth by half. For `CCOC(=O)c1nn(-c2ccc(Cl)cc2)c(-c2ccc(Cl)cc2)c1CNC(C)(C)C` [listing 1 of 2 here], the GI50 in the data set with HT-29 (48 h) was 57.7 µM; in the data set with U-251, 6.4 µM; in the data set on K562, 11.2 µM; in the data set with 786-0, 73.7 µM; in the data set with PC-3, 196 µM; in the data set on MCF7 it was 120 µM. Besides, the GI50 with OVCAR-3 stood at 21.6 µM; in the data set on NCI-H460 (48 h) it was 144 µM; in the data set on HaCaT, 2.9 µM.
Consider `CCOC(=O)c1nn(-c2ccccc2)c(-c2ccc(Cl)cc2)c1CNC(C)(C)C` [listing 1 of 2 here], for which the GI50 in the data set with HT-29 (48 h) was found to be 58.5 µM; with U-251, 73.8 µM; in the data set with K562, 57.6 µM; with 786-0, 86.7 µM; in the data set on PC-3, 28.6 µM; with MCF7, 72.4 µM. Further, the GI50 in the data set with OVCAR-3 is 0.134 µM; with NCI-H460 (48 h), 69.2 µM; with HaCaT, 63.5 µM.
Consider `CCOC(=O)c1nn(-c2ccccc2)c(-c2ccc(Br)cc2)c1CNC(C)(C)C` [listing 1 of 2 here], for which the GI50 in the data set with HT-29 (48 h) was 21.8 µM; in the data set with U-251, 71.9 µM; with K562, 22 µM; with 786-0, 83.9 µM; in the data set on PC-3, 15.9 µM; with MCF7, 74.2 µM. The GI50 in the data set on OVCAR-3 was 2.91 µM; in the data set with NCI-H460 (48 h), 118 µM; in the data set on HaCaT, 61.7 µM.
With `CCOC(=O)c1nn(-c2ccccc2)c(-c2ccccc2)c1CNC(C)(C)C` [listing 1 of 2 here], the GI50 came out at 69.6 µM with HT-29 (Homo sapiens, HT-29, 48 h); 81.5 µM with U-251; 9.62 µM in the data set on K562; 144 µM in the data set on 786-0; 39.9 µM in the data set with PC-3; 81.7 µM with MCF7. The results for the GI50 with OVCAR-3, in the data set with NCI-H460 (48 h) and in the data set with HaCaT were 1.01 µM, 76.9 µM and 77 µM, respectively.
As to `CCOC(=O)c1nn(-c2ccccc2)c(-c2ccccc2)c1CNC(C)(C)C` [listing 2 of 2 here], the GI50 stood at 94.6 µM in the data set on HT-29 (48 h); 440 µM in the data set with U-251; 113 µM in the data set on K562; 42.4 µM in the data set with 786-0; 91.7 µM with PC-3; 504 µM in the data set with MCF7. Further, the concentration for 50% growth inhibition (GI50) with OVCAR-3 was 195 µM; with NCI-H460 (48 h), 195 µM; in the data set with HaCaT, 13.3 µM.
Take `CCOC(=O)c1nn(-c2ccc(Cl)cc2)c(-c2ccc(Cl)cc2)c1CNC(C)(C)C` [listing 2 of 2 here]: the GI50 in the data set with HT-29 (48 h), with U-251, in the data set on K562, with 786-0, in the data set with PC-3 and with MCF7 was greater than 520 µM in each case. Moreover, the GI50 in the data set with OVCAR-3, in the data set with NCI-H460 (48 h) and with HaCaT was greater than 520 µM each time.
On to `CCOC(=O)c1nn(-c2ccc(Cl)cc2)c(-c2ccc(F)cc2)c1CNC(C)(C)C`, for which the GI50 in the data set with HT-29 (48 h), in the data set on U-251, in the data set on K562, with 786-0, in the data set on PC-3 and with MCF7 was greater than 538 µM in each case. Also, the GI50 with OVCAR-3, in the data set on NCI-H460 (48 h) and in the data set with HaCaT was greater than 538 µM throughout.
As for `CCOC(=O)c1nn(-c2ccccc2)c(-c2ccc(OC)cc2)c1CNC(C)(C)C` [listing 1 of 2 here], the GI50 came to 44.2 µM with HT-29 (48 h); 527 µM in the data set with U-251; 29.8 µM in the data set on K562; 166 µM with 786-0; 245 µM in the data set on PC-3; 244 µM in the data set on MCF7. Besides, the GI50 in the data set on OVCAR-3 amounted to 17.1 µM; in the data set with NCI-H460 (48 h), 148 µM; in the data set on HaCaT it was 19.2 µM.
`CCOC(=O)c1nn(-c2ccccc2)c(-c2ccc([N+](=O)[O-])cc2)c1CNC(C)(C)C`: the GI50 was 35.1 µM in the data set on HT-29 (48 h); greater than 546 µM in the data set on U-251; 191 µM with K562; greater than 546 µM with 786-0; 128 µM in the data set with PC-3; 168 µM in the data set on MCF7. For the same molecule, the GI50 was found to be 288 µM in the data set with OVCAR-3, 327 µM with NCI-H460 (48 h) and 130 µM in the data set with HaCaT.
Turning to `CCOC(=O)c1nn(-c2ccccc2)c(-c2ccc(Br)cc2)c1CNC(C)(C)C` [listing 2 of 2 here], the GI50 with HT-29 (48 h), in the data set on U-251, in the data set on K562, in the data set with 786-0, in the data set on PC-3 and with MCF7 was greater than 509 µM each time. Further, the GI50 in the data set with OVCAR-3, with NCI-H460 (48 h) and in the data set with HaCaT was greater than 509 µM in each case.
For `CCOC(=O)c1nn(-c2ccccc2)c(-c2ccc(C)cc2)c1CNC(C)(C)C` [listing 1 of 2 here], the GI50 in the data set with HT-29 (48 h) was 68.1 µM; in the data set with U-251, 65.4 µM; in the data set on K562, 11.3 µM; with 786-0, 86.1 µM; in the data set on PC-3 it was 59.9 µM; in the data set on MCF7, 78.2 µM. The 50% growth inhibitory concentration (GI50) with OVCAR-3 came out at 0.054 µM; in the data set with NCI-H460 (48 h), 75.2 µM; in the data set with HaCaT, 72.1 µM.
On to `CCOC(=O)c1nn(-c2ccccc2)c(-c2ccc(Cl)cc2)c1CNC(C)(C)C` [listing 2 of 2 here], for which the GI50 with HT-29 (48 h), in the data set with U-251, in the data set on K562, with 786-0, in the data set with PC-3 and in the data set on MCF7 was greater than 559 µM throughout. For the same molecule, the GI50 in the data set on OVCAR-3, in the data set on NCI-H460 (48 h) and in the data set with HaCaT was greater than 559 µM each time.
For the molecule `CCOC(=O)c1nn(-c2ccccc2)c(-c2ccc(OC)cc2)c1CNC(C)(C)C` [listing 2 of 2 here], the GI50 came to 61.3 µM in the data set on HT-29 (Homo sapiens, HT-29, 48 h); 134 µM in the data set with U-251; 66.6 µM in the data set with K562; 537 µM in the data set with 786-0; 530 µM in the data set with PC-3; 116 µM in the data set with MCF7. For the same molecule, the GI50 was 0.047 µM in the data set on OVCAR-3; 119 µM in the data set on NCI-H460 (Homo sapiens, NCI-H460, 48 h); 68.3 µM in the data set on HaCaT.
`CCOC(=O)c1nn(-c2ccccc2)c(-c2ccc(F)cc2)c1CNC(C)(C)C`: the GI50 was 29.9 µM in the data set on HT-29 (48 h); greater than 580 µM in the data set on U-251; 161 µM in the data set with K562; 319 µM in the data set with 786-0; 82.1 µM with PC-3; 517 µM in the data set on MCF7. In addition, the GI50 is 92.1 µM in the data set with OVCAR-3, 179 µM in the data set with NCI-H460 (48 h) and 32.9 µM with HaCaT.
In the case of `CCOC(=O)c1nn(-c2ccc(Cl)cc2)c(-c2ccccc2)c1CNC(C)(C)C`, the GI50 in the data set with HT-29 (48 h), in the data set on U-251, with K562, in the data set on 786-0, in the data set on PC-3 and with MCF7 was greater than 559 µM throughout. Besides, the GI50 in the data set with OVCAR-3, with NCI-H460 (48 h) and with HaCaT was greater than 559 µM in each case.
For `CCOC(=O)c1nn(-c2ccc(Cl)cc2)c(-c2ccc(Br)cc2)c1CNC(C)(C)C`, the GI50 in the data set on HT-29 (48 h), in the data set with U-251, with K562, in the data set on 786-0, with PC-3 and in the data set on MCF7 was greater than 476 µM in each case. For the same molecule, the 50% growth inhibitory concentration (GI50) in the data set with OVCAR-3, with NCI-H460 (48 h) and in the data set on HaCaT was greater than 476 µM in each case.
In the case of `CCOC(=O)c1nn(-c2ccccc2)c(-c2ccc(C)cc2)c1CNC(C)(C)C` [listing 2 of 2 here], the GI50 in the data set on HT-29 (48 h), in the data set on U-251, in the data set with K562, in the data set on 786-0, with PC-3 and in the data set with MCF7 was greater than 585 µM each time. In addition, the GI50 with OVCAR-3, in the data set on NCI-H460 (48 h) and in the data set on HaCaT was greater than 585 µM in each case.

Values taken from ChEMBL document CHEMBL4673302, “Efficient synthesis and antitumor evaluation of 4-aminomethyl-N-arylpyrazoles: Discovery of potent and selective agents for ovarian cancer” (Bioorg Med Chem, 2021).
